Here are results for 2 molecules from US9878021B2, “Compositions and methods for treatment of retinal degenerative diseases” (MOR RESEARCH APPLICATIONS LTD., priority 2013, dated 2018).

Holding throughout (assay type): cell-based
The test system of series [1] is RPE cells (ARPE-19). Description: Double-staining (annexin and propidium iodide) FACS assay of RPE cells. The note with it: TAK1 inhibitor 1 μM 1 hour prior to H2O2 200 μM; untreated 1.25%, H2O2 alone 31%. As for the experimental part: (§1) Double-staining (annexin and propidium iodide (PI)) assay of RPE cells. RPE cells (ARPE-19, available from ATCC) were treated for one hour with the TAK1 inhibitor {5Z-7-oxozeaenol (1 μM)}, following 200 μM H2O2 for one hour or left untreated. The cells were then washed with fresh medium and after 24 hours were trypsinized, stained, and analyzed by FACS. The percentage of cells in each cell-cycle phase (G1/G0, S, and G2/M) was determined by its DNA content (FL2A).

Series [2] relates to RPE cells (ARPE-19). Description: FACS cell-cycle analysis by DNA content (FL2A). As for the experimental part:
as §1

A further series has as its system ARPE-19 cells. The experiment in a line: Cell viability / proliferation XTT assay. As for the experimental part: Cell viability assays ARPE-19 cells were seeded in 96-well plates (5000 cells/well) in full medium and were pretreated with the TAK1 inhibitor 5Z-7-oxozeaenol (1 μM) or left untreated for 1 hour. Their viability was then assayed by the XTT assay (cell proliferation kit cat #20-300-1000; Beit Haemek, Israel).
(§2) To determine possible toxicity of anisomycin to RPE cells, RPE cells were treated with anisomycin at different concentration for 5 minute periods. Following treatment, the medium was replaced and fresh medium was added. 72 hours post-treatment, the cells were photographed. […] Their viability was then assayed by the XTT assay.

In series [3] the test system is RPE cells. Description: SA-β-gal (senescence marker) staining.
Series [4] deals with p53, phospho-p38 in RPE cells. The experiment in a line: Western blot analysis of p53 and phospho-p38. As for the experimental part:
Western blot analysis was performed by standard protocols (11), p53, p38, phospho-p38, GADPH, and TAK1; antibodies were obtained from Enco, Israel.

Series [5] relates to RPE cells. The experiment in a line: Conditioned media (SASP) applied on fresh RPE cells, morphology. The note with it: applied 72 hours. As for the experimental part: The most significant effect of senescence, is the acquisition of a senescence-associated secretory phenotype (SASP). SASP can convert senescent cells to proinflammatory cells that promote the secretion of chemokines and cytokines that can affect the microenvironment, including in the human retina (16, 17). To examine the role of TAK1 in this process, RPE cells were treated with TAK1 inhibitor or with H2O2, alone or in combination. After 2 weeks, the media was collected from the three separate treatments, centrifuged and the supernatants (conditioned media) were applied on fresh RPE cells for 72 hours.

For series [6], the system named is RPE cells. The experiment in a line: RPE cell size quantification (hypertrophy). The note with it: TAK1 inhibition combined with oxidative stress, compared to stressed and normal cells. The procedure:
N=40 cells for each treatment.
One of the hallmarks of RPE senescence is cellular hypertrophy. RPE cell size is approximately […]; but upon oxidative stress or genetic mutation RPE cells can undergo enlargement.

The subject of series [7] is RPE cells. The experiment in a line: Anisomycin toxicity to RPE cells, cellular morphology. Conditions: different concentrations for 5 minute periods, 72 hours post-treatment; low levels. As for the experimental part:
as §2

In the case of `COc1cc(O)c2c(c1)/C=C/C[C@H](O)[C@H](O)C(=O)/C=C\C[C@H](C)OC2=O` [5Z-7-oxozeaenol], the “number of apoptotic cells expressed as a percentage of the total number” value in the series with RPE cells (ARPE-19) [1] stood at 24%. In the series with RPE cells (ARPE-19) [2] (TAK1 inhibition prior to H2O2 treatment), the “G2/M arrest under oxidative stress” value is recorded as “reduced”. In addition, the “percentage of cells at the G0/G1 stage” value with RPE cells (ARPE-19) [2] (following TAK1 inhibition, of the total number) is on record as 89%. In addition, in the series with ARPE-19 cells (1 μM pretreatment 1 hour, untreated cells peak on day 4), the “proliferation rate (optical density)” value is “slower proliferation rate that began to decrease after 3 days”. The “number of cells expressing SA-β-gal” value in the series on RPE cells [3] (TAK1 inhibitor alone, relative to untreated cells) was “dramatically increased”. For the same molecule, the SA-β-gal expression result in the series with RPE cells [3] (pretreatment with TAK1 inhibitor then oxidative stress (H2O2), days 13 and 16) is “strongly increased”. In addition, in series [4] (RPE cells under oxidative stress, pretreated with TAK1 inhibitor 1 μM), the p38 phosphorylation entry is on record as “inhibition of p38 phosphorylation”. For the same molecule, the “p53 expression levels over a longer period” value in series [4] (TAK1 inhibition, days, compared to untreated cells) is given as “reduced p53 expression levels slightly more than the untreated cells”. In addition, the “time at which p53 expression peaked” value in series [4] (pretreated cells under oxidative stress, control cells peak after 60 min) is on record as 10 min. Also, the “phenotype of fresh RPE cells receiving conditioned medium” value was “hypertrophic phenotype similar to that of senescent cells” with RPE cells [5] (medium from cells treated with TAK1 inhibitor alone, 2 weeks); “aberrant morphology similar to that of atrophic RPE cells” in the series with RPE cells [5] (medium from cells treated with both TAK1 inhibitor and H2O2, 2 weeks). For the same molecule, the cell size entry in the series with RPE cells [6] is reported as “further increases cell size”.
As for `COc1ccc(C[C@H]2NC[C@H](O)[C@H]2OC(C)=O)cc1` [anisomycin, (2R,3S,4S)-4-hydroxy-2-(4-methoxybenzyl)-pyrrolidin-3-yl acetate], the “rate of cell proliferation” value in the series on ARPE-19 cells (oxidative stress and anisomycin) was “did not display reduction”. In the series on RPE cells [3] (H2O2 1 hour, 10 days growth, anisomycin 10 ng/ml 5 min, five more days, vs untreated cells exposed to oxidative stress), the “number of SA-β-Gal positive cells” value is on record as “reduces the number of SA-β-Gal positive cells”. For the same molecule, in the series on RPE cells [7], the “toxicity to RPE cells (cellular morphology vs control)” value is “not toxic”.
